Measured values taken from patent publication US9724335B2, “Solid dispersions of insoluble drug and preparation method thereof” (SK BIOPHARMACEUTICALS CO., LTD., priority 2012, dated 2017).
≈ marks a conversion by molar mass, not a printed value.

Columns and labels:
[1] = Solubility of CBI in several solvents (24 h stirring at room temperature, HPLC); assay type: physicochemical; settings: for solubility at 24 h: organic solvent or mixture, thermodynamic from solid
Procedure: Under several solvent conditions—i.e., distilled water, methanol, ethanol, acetone and diethyl ether—the solubility of CBI was measured. Specifically, about 5 to 40 mg of CBI was introduced into a 1.5 mL microtube, and 1 mL of the test solvent was added thereto. The mixture was slowly stirred in a rotary stirrer for 24 h under the condition of room temperature until solvent equilibrium was reached. After stirring, the suspended solution was filtered through a 0.45 micrometer membrane filter. The supernatant was collected and diluted by two-fold with the same amount of diluent for analysis. The CBI concentration was analyzed by using high-performance liquid chromatography. The column used in the present experiment was a […], 5 μm C18 column, and the mobile phase was a mixture of 35% acetonitrile, 20% methanol and 45% distilled water by volume. The flow rate was 1.0 mL/min, and the detection was performed at 255 nm. The results are shown in Table 11 wherein the values are represented as an average of three repeats ±standard deviation.

[2] = Pharmacokinetic test of the solid dispersion for a Beagle dog (oral, plasma CBI by LC-MS/MS); assay type: in vivo; settings: oral 40 mg/kg in gelatin capsule, all the time zones (0-24 h), listed as CBI powder
Procedure: Just before the test, three Beagle dogs were weighed respectively. The solid dispersion of Example 3 as the test group and CBI powder as the control group each weighed in the amount corresponding to 40 mg/kg, were filled into a gelatin capsule and then orally administered. Just before and at 0.5, 1, 2, 4, 6, 8 and 24 h after administration, the blood was collected from the popliteal vein. The plasma was separated from the blood sample by centrifugation and stored/kept at −20° C. until analysis thereof. For the analysis, the plasma sample (0.5 ml) was correctly transferred to a 1.5 ml polypropylene centrifuge tube. This mixture was vortexed for 30 sec and centrifuged at 400 rpm for 10 min. The concentration of CBI in the plasma was analyzed by LC-MS/MS. […] The peak was detected by MRM (multiple reaction monitoring) method using triple-quadrupole mass spectrometry. The ionization was analyzed in the positive mode by using electrospray ionization (ESI) wherein the ion spray temperature was set up at 500° C. In the MRM method, the protonated molecular ions of CBI and the internal standard compound were monitored to have the m/z values of 325.1 and 268.0, and the product ions thus produced were monitored to have the m/z values of 91.0 and 155.0, respectively. The area under the concentration-time curve (AUC) of the drug in the plasma was calculated by the linear trapezoidal method.

Solubility ([1]; Distilled Water): Not detected
solubility at 24 h ([1]; Acetone): 24800 µg/mL (≈ 76.5 mM)
solubility at 24 h ([1]; Diethyl Ether): 700 µg/mL (≈ 2.16 mM)
solubility at 24 h ([1]; Ethanol): 1500 µg/mL (≈ 4.62 mM)
solubility at 24 h ([1]; Methanol): 2500 µg/mL (≈ 7.71 mM)
Blood CBI Concentration [2]: below the sensitivity for quantification
Compound: NC(=O)OCc1cc(-c2ccc(OCc3ccccc3)cc2)no1 [CBI, carbamic acid 3-(4-benzyloxy-phenyl)-isoxazol-5-ylmethyl ester]
